Measurements taken from patent publication US10221197B2, “Phosphatidylinositol 3-kinase inhibitors” (Gilead Sciences, Inc., priority 2014, dated 2019).
Where a name gives a salt, the structure may show the parent alone. Read-outs that look alike come from different tables or passages of the source.

Legend:
Type in all cases: biochemical
[1] = target: PI3Kγ (Homo sapiens (Human), UniProt P48736); experiment: TR-FRET enzymatic assay of PI3K isoforms (PI3Kγ); conditions: read-out: γ IC50
Procedure: (§1) The compounds of formula (I) were characterized for their enzymatic activity against the PI3K isoforms. Certain compounds of the present application, including certain compounds of formula (II) and (III) were also characterized for their enzymatic activity against PI3K isoforms. The activities were measured using a time-resolved fluorescence resonance energy transfer (TR-FRET) assay.

[2] = target: PI3Kβ (Homo sapiens (Human), UniProt P42338); experiment: TR-FRET enzymatic assay of PI3K isoforms (PI3Kβ); conditions: TR-FRET, 2×Km ATP, 2 μM PIP2, incubated for 30 minutes at 25° C.; read-out: β IC50
PI3Kβ, sequence (P42338 whole entry, canonical isoform): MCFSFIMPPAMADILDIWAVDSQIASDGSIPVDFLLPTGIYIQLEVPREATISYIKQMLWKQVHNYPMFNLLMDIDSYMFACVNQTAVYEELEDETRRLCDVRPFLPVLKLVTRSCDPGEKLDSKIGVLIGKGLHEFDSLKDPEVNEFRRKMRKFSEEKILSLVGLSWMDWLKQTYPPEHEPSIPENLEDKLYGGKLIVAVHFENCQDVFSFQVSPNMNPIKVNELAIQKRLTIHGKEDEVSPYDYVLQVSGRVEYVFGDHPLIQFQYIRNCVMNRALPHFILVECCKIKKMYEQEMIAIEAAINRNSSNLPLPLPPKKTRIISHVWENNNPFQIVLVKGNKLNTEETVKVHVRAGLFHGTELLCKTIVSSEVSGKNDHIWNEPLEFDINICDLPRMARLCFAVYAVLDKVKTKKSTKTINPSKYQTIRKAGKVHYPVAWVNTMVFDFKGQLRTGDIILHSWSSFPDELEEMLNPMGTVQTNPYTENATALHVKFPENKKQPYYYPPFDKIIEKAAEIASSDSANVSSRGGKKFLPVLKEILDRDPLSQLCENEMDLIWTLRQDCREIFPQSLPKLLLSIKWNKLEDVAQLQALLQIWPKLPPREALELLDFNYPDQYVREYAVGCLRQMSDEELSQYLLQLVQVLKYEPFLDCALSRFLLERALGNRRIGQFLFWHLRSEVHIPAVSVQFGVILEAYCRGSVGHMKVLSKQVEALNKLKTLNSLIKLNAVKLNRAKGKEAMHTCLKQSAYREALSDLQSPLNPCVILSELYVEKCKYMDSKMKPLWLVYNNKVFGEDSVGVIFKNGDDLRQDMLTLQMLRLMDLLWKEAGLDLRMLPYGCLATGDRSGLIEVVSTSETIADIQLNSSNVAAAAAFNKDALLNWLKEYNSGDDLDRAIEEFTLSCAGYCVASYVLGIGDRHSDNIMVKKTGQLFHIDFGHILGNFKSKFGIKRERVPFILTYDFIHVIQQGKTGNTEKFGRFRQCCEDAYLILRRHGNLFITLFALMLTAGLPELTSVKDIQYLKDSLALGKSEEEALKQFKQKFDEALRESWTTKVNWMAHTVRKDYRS
PI3Kβ, sequence (P27986 whole entry partner, canonical isoform): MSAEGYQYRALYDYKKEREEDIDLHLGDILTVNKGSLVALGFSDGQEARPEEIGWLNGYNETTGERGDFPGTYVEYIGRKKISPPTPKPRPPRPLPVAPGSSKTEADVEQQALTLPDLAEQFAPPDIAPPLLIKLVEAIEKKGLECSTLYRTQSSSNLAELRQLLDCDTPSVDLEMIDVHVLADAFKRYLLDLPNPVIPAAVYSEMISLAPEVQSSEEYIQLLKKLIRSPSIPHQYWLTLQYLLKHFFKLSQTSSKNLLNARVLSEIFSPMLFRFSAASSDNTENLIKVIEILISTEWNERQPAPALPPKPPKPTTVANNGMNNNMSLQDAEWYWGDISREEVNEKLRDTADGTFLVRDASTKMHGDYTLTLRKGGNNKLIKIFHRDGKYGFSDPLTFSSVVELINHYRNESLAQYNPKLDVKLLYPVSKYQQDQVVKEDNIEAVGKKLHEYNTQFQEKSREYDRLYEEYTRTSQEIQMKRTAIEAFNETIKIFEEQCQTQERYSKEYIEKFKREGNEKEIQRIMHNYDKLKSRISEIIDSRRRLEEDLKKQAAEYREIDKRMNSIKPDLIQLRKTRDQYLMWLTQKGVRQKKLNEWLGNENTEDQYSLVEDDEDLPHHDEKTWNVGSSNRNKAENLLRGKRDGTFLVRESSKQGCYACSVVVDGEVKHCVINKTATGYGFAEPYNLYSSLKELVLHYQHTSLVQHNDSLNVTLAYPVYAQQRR
Procedure: as §1

[3] = target: PI3Kδ (Homo sapiens (Human), UniProt O00329); experiment: TR-FRET enzymatic assay of PI3K isoforms (PI3Kδ); conditions: 2×Km ATP, 2 μM PIP2, incubated for 30 minutes at 25° C., read-out: δ IC50
PI3Kδ, sequence (O00329 whole entry, canonical isoform): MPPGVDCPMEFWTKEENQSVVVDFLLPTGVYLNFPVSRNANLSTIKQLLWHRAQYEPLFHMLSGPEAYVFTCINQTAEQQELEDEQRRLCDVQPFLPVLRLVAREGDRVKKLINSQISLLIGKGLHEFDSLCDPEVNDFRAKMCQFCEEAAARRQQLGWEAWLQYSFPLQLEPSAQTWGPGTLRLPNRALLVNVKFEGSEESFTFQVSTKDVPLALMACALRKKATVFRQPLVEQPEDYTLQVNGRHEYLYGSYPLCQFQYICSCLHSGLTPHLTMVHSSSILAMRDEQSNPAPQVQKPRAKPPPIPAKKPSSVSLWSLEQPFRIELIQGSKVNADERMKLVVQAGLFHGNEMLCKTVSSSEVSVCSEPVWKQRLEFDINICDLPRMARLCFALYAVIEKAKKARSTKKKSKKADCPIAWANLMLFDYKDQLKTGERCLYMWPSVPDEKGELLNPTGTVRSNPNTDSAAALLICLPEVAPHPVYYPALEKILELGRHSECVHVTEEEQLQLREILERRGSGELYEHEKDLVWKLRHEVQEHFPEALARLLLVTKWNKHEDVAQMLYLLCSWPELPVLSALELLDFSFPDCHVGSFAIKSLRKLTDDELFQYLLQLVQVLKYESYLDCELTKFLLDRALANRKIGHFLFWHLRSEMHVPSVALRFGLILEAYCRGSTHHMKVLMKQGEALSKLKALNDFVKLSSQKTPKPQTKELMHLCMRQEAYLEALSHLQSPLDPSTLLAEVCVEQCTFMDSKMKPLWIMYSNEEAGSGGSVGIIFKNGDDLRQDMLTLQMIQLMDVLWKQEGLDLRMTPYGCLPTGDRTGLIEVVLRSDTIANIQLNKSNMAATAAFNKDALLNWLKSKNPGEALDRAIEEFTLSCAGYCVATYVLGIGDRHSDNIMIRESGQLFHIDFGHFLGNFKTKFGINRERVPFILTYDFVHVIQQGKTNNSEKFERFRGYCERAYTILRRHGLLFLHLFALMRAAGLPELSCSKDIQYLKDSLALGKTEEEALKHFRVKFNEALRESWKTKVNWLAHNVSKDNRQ
PI3Kδ, sequence (P27986 whole entry partner, canonical isoform): as the sequence (P27986 whole entry partner, canonical isoform) above
Procedure: as §1

[4] = TR-FRET, 2×Km ATP, 2 μM PIP2, PI3Kγ at 2 nM, incubated for 30 minutes at 25° C.

PI3Kγ, sequence (P48736 whole entry, canonical isoform): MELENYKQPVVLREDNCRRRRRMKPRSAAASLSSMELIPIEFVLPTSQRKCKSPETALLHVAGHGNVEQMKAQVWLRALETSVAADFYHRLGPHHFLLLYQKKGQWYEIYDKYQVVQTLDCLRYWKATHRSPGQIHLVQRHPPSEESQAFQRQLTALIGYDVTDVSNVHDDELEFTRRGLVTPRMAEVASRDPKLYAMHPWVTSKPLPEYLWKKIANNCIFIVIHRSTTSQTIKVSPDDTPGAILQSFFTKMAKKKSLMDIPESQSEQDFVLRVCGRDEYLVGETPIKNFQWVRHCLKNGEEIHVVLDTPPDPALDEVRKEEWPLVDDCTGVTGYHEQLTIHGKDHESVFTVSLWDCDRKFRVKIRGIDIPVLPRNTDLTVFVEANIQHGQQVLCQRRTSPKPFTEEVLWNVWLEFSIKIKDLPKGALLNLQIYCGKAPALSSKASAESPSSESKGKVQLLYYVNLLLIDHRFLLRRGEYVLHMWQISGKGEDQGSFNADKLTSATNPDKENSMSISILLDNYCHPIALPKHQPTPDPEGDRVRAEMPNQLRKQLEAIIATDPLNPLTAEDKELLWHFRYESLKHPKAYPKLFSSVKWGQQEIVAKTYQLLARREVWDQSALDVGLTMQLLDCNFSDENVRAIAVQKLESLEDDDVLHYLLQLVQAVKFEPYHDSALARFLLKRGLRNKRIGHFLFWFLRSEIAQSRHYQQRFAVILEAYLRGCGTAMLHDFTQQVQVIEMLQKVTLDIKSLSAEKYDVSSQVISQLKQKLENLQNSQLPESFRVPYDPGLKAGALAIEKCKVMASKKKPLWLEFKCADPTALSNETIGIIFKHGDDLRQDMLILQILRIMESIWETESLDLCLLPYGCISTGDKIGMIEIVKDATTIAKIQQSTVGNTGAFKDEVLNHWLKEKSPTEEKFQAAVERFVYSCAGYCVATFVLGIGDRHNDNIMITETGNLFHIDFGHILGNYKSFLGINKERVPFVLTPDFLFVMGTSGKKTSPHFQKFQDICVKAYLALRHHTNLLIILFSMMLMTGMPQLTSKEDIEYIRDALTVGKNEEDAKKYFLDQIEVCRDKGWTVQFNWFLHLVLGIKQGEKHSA
PI3Kγ, sequence (Q8WYR1 whole entry partner, canonical isoform): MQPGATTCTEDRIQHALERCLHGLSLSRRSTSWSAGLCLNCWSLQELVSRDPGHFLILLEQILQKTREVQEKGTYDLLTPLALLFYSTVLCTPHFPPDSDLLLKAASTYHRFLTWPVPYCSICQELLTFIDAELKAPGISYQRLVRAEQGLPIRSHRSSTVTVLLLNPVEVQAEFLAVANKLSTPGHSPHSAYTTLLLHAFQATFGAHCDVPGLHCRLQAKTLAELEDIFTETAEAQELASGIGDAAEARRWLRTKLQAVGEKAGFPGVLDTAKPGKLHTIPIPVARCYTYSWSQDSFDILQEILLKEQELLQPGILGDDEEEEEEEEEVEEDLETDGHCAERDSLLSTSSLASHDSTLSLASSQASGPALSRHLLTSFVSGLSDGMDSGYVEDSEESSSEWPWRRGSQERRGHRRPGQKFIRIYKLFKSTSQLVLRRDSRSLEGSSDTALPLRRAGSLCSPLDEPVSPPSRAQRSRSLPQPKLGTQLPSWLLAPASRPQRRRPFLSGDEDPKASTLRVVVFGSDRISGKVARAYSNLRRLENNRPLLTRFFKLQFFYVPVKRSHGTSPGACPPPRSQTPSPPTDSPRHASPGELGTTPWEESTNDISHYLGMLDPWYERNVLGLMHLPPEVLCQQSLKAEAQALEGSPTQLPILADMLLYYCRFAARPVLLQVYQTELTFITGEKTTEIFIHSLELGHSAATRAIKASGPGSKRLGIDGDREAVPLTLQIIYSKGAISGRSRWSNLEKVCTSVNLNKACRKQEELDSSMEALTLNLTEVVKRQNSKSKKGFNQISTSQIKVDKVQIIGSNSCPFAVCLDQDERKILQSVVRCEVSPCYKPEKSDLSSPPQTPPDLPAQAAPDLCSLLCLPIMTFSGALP

## C[C@H](Nc1ncnc(N)c1C#N)c1nc2cccc(Cl)c2c(=O)n1-c1cccc(NC(=O)Nc2ccccc2C#N)c1 [Compound 106, (S)-1-(3-(2-(1-((6-amino-5-cyanopyrimidin-4-yl)amino)ethyl)-5-chloro-4-oxoquinazolin-3(4H)-yl)phenyl)-3-(2-cyanophenyl)urea]
[1]
  IC50: > 10 µM
[2]
  IC50: 4.8 µM
[3]
  IC50: 0.02 µM

## CCNC(=O)Nc1ccc(Cl)c(-n2c([C@H](C)Nc3ncnc(N)c3C#N)nc3cccc(Cl)c3c2=O)c1 (atropisomer, axis not shown) [Compound 59, (S)-1-(3-(2-(1-((6-amino-5-cyanopyrimidin-4-yl)amino)ethyl)-5-chloro-4-oxoquinazolin-3(4H)-yl)-4-chlorophenyl)-3-ethylurea]
[1]; [4]
  IC50: 2.3 µM
[2]
  IC50: 0.61 µM
[3]
  IC50: 0.056 µM

## N#Cc1c(N)nc(N)nc1N[C@H](c1nc2cccc(C(F)F)c2c(=O)n1-c1cccc(C(N)=O)c1)C1CC1 [Compound 35, (S)-3-(2-(cyclopropyl((2,6-diamino-5-cyanopyrimidin-4-yl)amino)methyl)-5-(difluoromethyl)-4-oxoquinazolin-3(4H)-yl)benzamide]
[1]; [4]
  IC50: 0.2 µM
[2]
  IC50: 0.005 µM
[3]
  IC50: 0.001 µM

## NC(=O)c1cc(F)cc(-n2c([C@@H](Nc3ncnc(N)c3Cl)C3CC3)nc3cccc(Cl)c3c2=O)c1 [Compound 160, (S)-3-(2-(((6-amino-5-chloropyrimidin-4-yl)amino)(cyclopropyl)methyl)-5-chloro-4-oxoquinazolin-3(4H)-yl)-5-fluorobenzamide]
[1]; [4]
  IC50: > 10 µM
[2]
  IC50: 2.4 µM
[3]
  IC50: 0.066 µM

## C[C@H](Nc1ncnc(N)c1C#N)c1nc2c(F)ccc(Cl)c2c(=O)n1-c1cccc(NC(=O)NCCCO)c1 [Compound 66, (S)-1-(3-(2-(1-((6-amino-5-cyanopyrimidin-4-yl)amino)ethyl)-5-chloro-8-fluoro-4-oxoquinazolin-3(4H)-yl)phenyl)-3-(3-hydroxypropyl)urea]
[1]; [4]
  IC50: 3.7 µM
[2]
  IC50: 0.004 µM
[3]
  IC50: 0.009 µM

## N#Cc1c(N)nc(N)nc1N[C@H](c1nc2cccc(Cl)c2c(=O)n1-c1cccc(C(N)=O)c1)C1CC1 [Compound 9, (S)-3-(5-chloro-2-(cyclopropyl((2,6-diamino-5-cyanopyrimidin-4-yl)amino)methyl)-4-oxoquinazolin-3(4H)-yl)benzamide]
[1]; [4]
  IC50: 0.22 µM
[2]
  IC50: 0.002 µM
[3]
  IC50: 0.0006 µM

## C[C@H](Nc1ncnc(N)c1C#N)c1nc2cccc(Cl)c2c(=O)n1-c1cccc(NC(=O)Nc2ccccc2S(=O)(=O)O)c1 [Compound 97, (S)-2-(3-(3-(2-(1-((6-amino-5-cyanopyrimidin-4-yl)amino)ethyl)-5-chloro-4-oxoquinazolin-3(4H)-yl)phenyl)ureido)benzenesulfonic acid]
[1]; [4]
  IC50: 6 µM
[2]
  IC50: 0.12 µM
[3]
  IC50: 0.005 µM

## CC(Oc1ncnc2scnc12)c1nc2cccc(Cl)c2c(=O)n1-c1cccc(NC(=O)NCC(F)(F)F)c1 (stereo not drawn) [Compound 154, 1-(3-(5-chloro-4-oxo-2-(1-(thiazolo[5,4-d]pyrimidin-7-yloxy)ethyl)quinazolin-3(4H)-yl)phenyl)-3-(2,2,2-trifluoroethyl)urea]
[1]; [4]
  IC50: 1.4 µM
[2]
  IC50: 0.004 µM
[3]
  IC50: 0.005 µM

## CCNC(=O)Nc1cccc(-n2c([C@H](C)Nc3ncnc(N)c3C#N)nc3c(F)ccc(Cl)c3c2=O)c1 [Compound 62, (S)-1-(3-(2-(1-((6-amino-5-cyanopyrimidin-4-yl)amino)ethyl)-5-chloro-8-fluoro-4-oxoquinazolin-3(4H)-yl)phenyl)-3-ethylurea]
[1]; [4]
  IC50: 3.8 µM
[2]
  IC50: 0.007 µM
[3]
  IC50: 0.004 µM

## C[C@H](Oc1ncnc2scnc12)c1nc2cccc(Cl)c2c(=O)n1-c1cccc(NC(=O)NCC(F)(F)C(F)(F)F)c1 [Compound 152, (S)-1-(3-(5-chloro-4-oxo-2-(1-(thiazolo[5,4-d]pyrimidin-7-yloxy)ethyl)quinazolin-3(4H)-yl)phenyl)-3-(2,2,3,3,3-pentafluoropropyl)urea]
[1]; [4]
  IC50: 2.5 µM
[2]
  IC50: 0.017 µM
[3]
  IC50: 0.01 µM

## CONC(=O)Nc1cccc(-n2c([C@H](C)Oc3ncnc4scnc34)nc3cccc(Cl)c3c2=O)c1 [Compound 153, (S)-1-(3-(5-chloro-4-oxo-2-(1-(thiazolo[5,4-d]pyrimidin-7-yloxy)ethyl)quinazolin-3(4H)-yl)phenyl)-3-methoxyurea]
[1]; [4]
  IC50: 1.6 µM
[2]
  IC50: 0.048 µM
[3]
  IC50: 0.004 µM

## C[C@H](Oc1ncnc2scnc12)c1nc2cccc(Cl)c2c(=O)n1-c1cccc(NC(=O)NCC2OCCO2)c1 [Compound 157, (S)-1-((1,3-dioxolan-2-yl)methyl)-3-(3-(5-chloro-4-oxo-2-(1-(thiazolo[5,4-d]pyrimidin-7-yloxy)ethyl)quinazolin-3(4H)-yl)phenyl)urea]
[1]; [4]
  IC50: 3.1 µM
[2]
  IC50: 0.025 µM
[3]
  IC50: 0.007 µM

## CCNC(=O)Nc1cccc(-n2c([C@H](C)Nc3ncnc(N)c3C#N)nc3cccc(C#N)c3c2=O)c1 [Compound 69, (S)-1-(3-(2-(1-((6-amino-5-cyanopyrimidin-4-yl)amino)ethyl)-5-cyano-4-oxoquinazolin-3(4H)-yl)phenyl)-3-ethylurea 2,2,2-trifluoroacetic acid salt]
[1]; [4]
  IC50: 5.2 µM
[2]
  IC50: 0.11 µM
[3]
  IC50: 0.008 µM

## NC(=O)c1cccc(-n2c([C@@H](Nc3nc(N)nc(N)c3Cl)C3CC3)nc3c(Cl)cc(F)cc3c2=O)c1 [Compound 28, (S)-3-(8-chloro-2-(cyclopropyl((2,6-diamino-5-chloropyrimidin-4-yl)amino)methyl)-6-fluoro-4-oxoquinazolin-3(4H)-yl)benzamide]
[1]; [4]
  IC50: > 10 µM
[2]
  IC50: 0.267 µM
[3]
  IC50: 0.046 µM

## CCNC(=O)Nc1cccc(-n2c([C@H](C)Nc3ncnc4scnc34)nc3cccc(Cl)c3c2=O)c1 [Compound 72, (S)-1-(3-(5-chloro-4-oxo-2-(1-(thiazolo[5,4-d]pyrimidin-7-ylamino)ethyl)quinazolin-3(4H)-yl)phenyl)-3-ethylurea]
[1]; [4]
  IC50: 1.3 µM
[2]
  IC50: 0.004 µM
[3]
  IC50: 0.005 µM

## C[C@H](Nc1ncnc(N)c1C#N)c1nc2cccc(Cl)c2c(=O)n1-c1cccc(NC(=O)Nc2ccccc2S(C)(=O)=O)c1 [Compound 144, (S)-1-(3-(2-(1-((6-amino-5-cyanopyrimidin-4-yl)amino)ethyl)-5-chloro-4-oxoquinazolin-3(4H)-yl)phenyl)-3-(2-(methylsulfonyl)phenyl)urea]
[1]; [4]
  IC50: 6.5 µM
[2]
  IC50: 0.017 µM
[3]
  IC50: 0.004 µM

## COc1ccccc1NC(=O)Nc1cccc(-n2c([C@H](C)Nc3ncnc(N)c3C#N)nc3cccc(Cl)c3c2=O)c1 [Compound 109, (S)-1-(3-(2-(1-((6-amino-5-cyanopyrimidin-4-yl)amino)ethyl)-5-chloro-4-oxoquinazolin-3(4H)-yl)phenyl)-3-(2-methoxyphenyl)urea]
[1]; [4]
  IC50: 2.6 µM
[2]
  IC50: 0.009 µM
[3]
  IC50: 0.002 µM

## CCNC(=O)Nc1cccc(-n2c([C@H](C)Oc3ncnc(N)c3C#N)nc3cccc(Cl)c3c2=O)c1 [Compound 70, (S)-1-(3-(2-(1-((6-amino-5-cyanopyrimidin-4-yl)oxy)ethyl)-5-chloro-4-oxoquinazolin-3(4H)-yl)phenyl)-3-ethylurea]
[1]; [4]
  IC50: 1.5 µM
[2]
  IC50: 0.012 µM
[3]
  IC50: 0.002 µM

## CCNC(=O)Nc1cccc(-n2c([C@H](C)N(C)c3ncnc(N)c3C#N)nc3cccc(Cl)c3c2=O)c1 [Compound 57, (S)-1-(3-(2-(1-((6-amino-5-cyanopyrimidin-4-yl)(methyl)amino)ethyl)-5-chloro-4-oxoquinazolin-3(4H)-yl)phenyl)-3-ethylurea]
[1]; [4]
  IC50: > 10 µM
[2]
  IC50: 0.58 µM
[3]
  IC50: 0.61 µM

## C[C@H](Nc1ncnc(N)c1C#N)c1nc2cccc(Cl)c2c(=O)n1-c1cccc(NC(=O)NC(C)(C)CO)c1 [Compound 138, (S)-1-(3-(2-(1-((6-amino-5-cyanopyrimidin-4-yl)amino)ethyl)-5-chloro-4-oxoquinazolin-3(4H)-yl)phenyl)-3-(1-hydroxy-2-methylpropan-2-yl)urea]
[1]; [4]
  IC50: 5.2 µM
[2]
  IC50: 0.004 µM
[3]
  IC50: 0.007 µM

## CCNC(=O)Nc1cccc(-n2c([C@H](C)Nc3ncnc4[nH]cnc34)nc3cccc(Cl)c3c2=O)c1 [Compound 91, (S)-1-(3-(2-(1-((9H-purin-6-yl)amino)ethyl)-5-chloro-4-oxoquinazolin-3(4H)-yl)phenyl)-3-ethylurea]
[1]; [4]
  IC50: 1.4 µM
[2]
  IC50: 0.032 µM
[3]
  IC50: 0.019 µM

## N#Cc1c(N)nc(N)nc1N[C@H](c1nc2c(Cl)ccc(Cl)c2c(=O)n1-c1cccc(C(N)=O)c1)C1CC1 [Compound 12, (S)-3-(5,8-dichloro-2-(cyclopropyl((2,6-diamnino-5-cyanopyrimidin-4-yl)amino)methyl)-4-oxoquinazolin-3(4H)-yl)benzamide]
[1]; [4]
  IC50: 0.23 µM
[2]
  IC50: 0.006 µM
[3]
  IC50: 0.0003 µM

## O=C(NCCCO)Nc1cccc(-n2c([C@H](COCc3ccccc3)Nc3ncnc4[nH]cnc34)nc3cccc(Cl)c3c2=O)c1 [Compound 131, (R)-1-(3-(2-(1-((9H-purin-6-yl)amino)-2-(benzyloxy)ethyl)-5-chloro-4-oxoquinazolin-3(4H)-yl)phenyl)-3-(3-hydroxypropyl)urea]
[1]
  IC50: > 10 µM
[2]
  IC50: 0.043 µM
[3]
  IC50: 0.041 µM

## C=CCc1cccc2nc([C@H](C)Nc3ncnc(N)c3C#N)n(-c3cccc(NC(=O)NCC)c3)c(=O)c12 [Compound 46, (S)-1-(3-(5-allyl-2-(1-((6-amino-5-cyanopyrimidin-4-yl)amino)ethyl)-4-oxoquinazolin-3(4H)-yl)phenyl)-3-ethylurea]
[1]; [4]
  IC50: > 10 µM
[2]
  IC50: 0.035 µM
[3]
  IC50: 0.017 µM
